From ChEMBL document CHEMBL5335785, “Structure-based virtual screening discovers potent and selective adenosine A1 receptor antagonists” (Eur J Med Chem, 2023)

Tests used:
Adenosine receptor A2a [1] = target: T1, Adenosine receptor A2a (Homo sapiens, UniProt P29274); conditions: Flp-In-CHO, time 60-90 min
[2] = target: T2, Adenosine receptor A1 (Homo sapiens) (UniProt P30542); conditions: Flp-In-CHO, time 60-90 min
T2 sequence (whole entry): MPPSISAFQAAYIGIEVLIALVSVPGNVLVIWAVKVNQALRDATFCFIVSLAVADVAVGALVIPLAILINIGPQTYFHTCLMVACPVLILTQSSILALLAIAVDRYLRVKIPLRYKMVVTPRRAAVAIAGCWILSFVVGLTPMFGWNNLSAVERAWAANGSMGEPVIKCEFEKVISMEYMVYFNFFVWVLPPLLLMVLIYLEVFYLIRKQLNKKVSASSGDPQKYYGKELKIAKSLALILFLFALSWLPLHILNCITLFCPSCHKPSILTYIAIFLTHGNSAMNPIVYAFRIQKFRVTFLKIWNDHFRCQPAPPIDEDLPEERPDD

Adenosine receptor A2a [3] = target: T1, Adenosine receptor A2a; experiment: Antagonist activity at human A2AR expressed in Flp-In-CHO cells assessed as NECA-mediated cAMP accumulation incubated for 30 to 60 mins followed by NECA addition measured after 30 mins by LANCE cAMP assay (reference value: 8.38 +/- 0.03); assay type: functional, cell-based
Adenosine receptor A1 [4] = target: T3, Adenosine receptor A1 (Homo sapiens, UniProt P30542); experiment: Antagonist activity at human A1R expressed in Flp-In-CHO cells assessed as NECA-mediated reduction in forskolin-stimulated cAMP accumulation incubated for 30 to 60 mins followed by forskolin/NECA addition measured after 30 mins by LANCE cAMP assay (reference value: 8.74 +/- 0.08); assay type: functional, cell-based
T3 sequence (P30542 whole entry): T2 sequence (whole entry)

Adenosine receptor A1 [5] = target: T3, Adenosine receptor A1; experiment: Displacement of [3H]DPCPX from human A1R expressed in Flp-In-CHO cells incubated for 12 hrs by microbeta plate counter analysis; assay type: cell-based

T1 sequence (P29274 whole entry): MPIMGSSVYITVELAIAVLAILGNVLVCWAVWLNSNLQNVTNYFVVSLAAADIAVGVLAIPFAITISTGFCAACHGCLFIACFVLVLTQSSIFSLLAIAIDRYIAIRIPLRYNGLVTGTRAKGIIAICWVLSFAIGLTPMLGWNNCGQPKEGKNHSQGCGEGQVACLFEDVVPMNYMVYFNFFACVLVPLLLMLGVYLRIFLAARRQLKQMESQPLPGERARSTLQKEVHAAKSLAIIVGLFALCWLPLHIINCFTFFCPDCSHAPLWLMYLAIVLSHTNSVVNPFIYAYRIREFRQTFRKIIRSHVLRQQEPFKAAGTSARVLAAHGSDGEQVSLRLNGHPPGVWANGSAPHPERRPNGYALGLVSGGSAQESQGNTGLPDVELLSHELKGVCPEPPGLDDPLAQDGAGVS

| SMILES | pKb ([2]; filed as antagonist) | pKb (Adenosine receptor A2a [1]; filed as antagonist) | EC50 (Adenosine receptor A1 [4]) | also measured |
| --- | --- | --- | --- | --- |
| Cc1cccc(C(=O)Nc2nc3c(s2)Cc2ccccc2-3)c1C | 6.67 | – | – | pKb (Adenosine receptor A2a [1]): < 5.5 |
| O=C(CC1CCCC1)N1CCc2c(nc(N3CCCC3)[nH]c2=O)C1 | – | – | – | EC50 (Adenosine receptor A2a [3]): 4.47 nM |
| Cc1c(C(=O)Nc2nc3c(s2)Cc2ccccc2-3)ccc2cncn12 | – | – | – | pKb (Adenosine receptor A2a [1]): < 5.5; pKb [2]: < 5.5 |
| CC1(CNc2ncc(-c3ccncc3)c(-c3cccs3)n2)COC1 | – | – | – | pKb (Adenosine receptor A2a [1]): < 5.5; pKb [2]: < 5.5 |
| CCC1CCC(C(=O)Nc2nc3c(s2)Cc2ccccc2-3)CC1 (stereo unspecified) | – | – | – | pKb (Adenosine receptor A2a [1]): < 5.5; pKb [2]: < 5.5 |
| c1csc(-c2nc(NC3CCCCCC3)ncc2-c2ccncc2)c1 | 8.1 | 6.79 | – | – |
| O=C(Nc1nc(C2CC2)cs1)C1COc2ccccc2C1 (stereo unspecified) | – | – | 3.24 nM | – |
| CC(=O)N1CCC(Nc2ncc(-c3ccncc3)c(-c3cccs3)n2)CC1 | 7.82 | 6.57 | – | – |
| Cc1coc(C(=O)Nc2nc3c(s2)Cc2ccccc2-3)c1C | – | – | – | pKb [2]: < 5.5 |
| COc1ccc(C(=O)Nc2nc(C)c3cc4c(cc3n2)OCO4)cc1 | – | – | 1.91 nM | – |
| Cn1c(=O)c2[nH]c(N(CCO)CCO)nc2n(C)c1=O | – | – | 17 nM | Ki (Adenosine receptor A1 [5]; read-out: pKi (converted)): 2820 nM; EC50 (Adenosine receptor A2a [3]): 6.92 nM |
| O=C(Nc1nc2c(s1)Cc1ccccc1-2)C12CC3CC(CC1C3)C2 | 7.57 | 6.3 | – | Ki (Adenosine receptor A1 [5]; read-out: Ki): 72 nM |
| O=C(Nc1nc2c(s1)Cc1ccccc1-2)c1ncn2cc(Cl)ccc12 | – | – | – | pKb [2]: < 5.5 |
| COC1(OC)CC(C)(C(=O)Nc2nc3c(s2)Cc2ccccc2-3)C1 | 6.7 | 7.25 | – | – |
| CC(Sc1nnc(C(C)C)[nH]1)C(=O)c1ccccc1 (stereo unspecified) | – | – | 3.31 nM | – |
| CC(=O)NC(CC(=O)Nc1nc(C(C)=O)cs1)c1ccc(C)cc1 (stereo unspecified) | – | – | 2.57 nM | – |
| CC1(C(=O)Nc2nc3c(s2)Cc2ccccc2-3)CCC(=O)CC1 | 7.85 | 7.25 | – | – |
| CC(C)N1CC(C(=O)Nc2nc3ccccc3[nH]2)CC1=O (stereo unspecified) | – | – | – | EC50 (Adenosine receptor A2a [3]): 20.4 nM |
| Cc1ccc2nc(C(=O)Nc3cnc4n3CCCC4)cn2c1 | – | – | – | EC50 (Adenosine receptor A2a [3]): 4.57 nM |
| Cc1cccnc1C(=O)Nc1nc2c(s1)Cc1ccccc1-2 | – | – | – | pKb [2]: < 5.5 |
| CC(C)(CNc1ncc(-c2ccncc2)c(-c2cccs2)n1)C1CCC1 | 7.15 | 6.09 | – | – |
| O=C(Nc1nc2ccccc2s1)N(CCO)C1CC1 | – | – | 3.63 nM | EC50 (Adenosine receptor A2a [3]): 6.03 nM |
| COCC(O)CNc1ncc(C)c(-c2ncnn2C)n1 (stereo unspecified) | – | – | 2.34 nM | EC50 (Adenosine receptor A2a [3]): 4.57 nM |
| Cc1nnsc1C(=O)Nc1nc2c(s1)Cc1ccccc1-2 | – | – | – | EC50 (Adenosine receptor A2a [3]): 63.1 nM |
| O=C(Nc1nc2c(s1)Cc1ccccc1-2)C1CCCCCC1 | 7.29 | 6.87 | – | – |
| c1csc(-c2nc(NC3CCC4(CC3)OCCO4)ncc2-c2ccncc2)c1 | 7.07 | 6.53 | – | – |

Second part, led by results:

| pKb ([2]; filed as antagonist) | pKb (Adenosine receptor A2a [1]; filed as antagonist) | EC50 (Adenosine receptor A1 [4]) | SMILES | also measured |
| --- | --- | --- | --- | --- |
| 7.24 | 7 | – | O=C(Nc1nc2c(s1)Cc1ccccc1-2)C1CCCCC1 | – |
| – | – | 2.51 nM | c1ccc(CNc2nc(N3CCCCC3)c3nccnc3n2)nc1 | – |
| 7.86 | 7.4 | – | CC1(C(=O)Nc2nc3c(s2)Cc2ccccc2-3)CCCC1 | – |
| 6.38 | – | – | CC1(CNc2ncc(-c3ccncc3)c(-c3cccs3)n2)OCCO1 | pKb (Adenosine receptor A2a [1]): < 5.5 |
| – | – | 14.8 nM | CCOc1nc(NC(CO)c2ccco2)ncc1Br (stereo unspecified) | Ki (Adenosine receptor A1 [5]; read-out: pKi (converted)): 2450 nM |
| 7.7 | 7.03 | – | C=C1CCC(C(=O)Nc2nc3c(s2)Cc2ccccc2-3)CC1 | – |
| – | – | 2.82 nM | O=C(Nc1noc(-c2ccccc2)n1)c1cccc(Cl)c1 | EC50 (Adenosine receptor A2a [3]): 10.5 nM |
